Assay results published in patent US7008636B2, “2,3,5-substituted biphenyls useful in the treatment of insulin resistance and hyperglycemia” (Wyeth, priority 1998, dated 2006).
Structures can show the parent of a compound that is named as a salt.

Each molecule was assayed against T1, recombinant, human protein tyrosine phosphatase (PTP) 1B (hPTP1B) (Homo sapiens, UniProt P18031) (assay: Inhibition of tri-phosphorylated insulin receptor dodecaphosphopeptide dephosphorylation by hPTP1B). Conditions: 50 μM IR triphosphopeptide substrate, 5 min preincubation and 5 min reaction at 37° C., malachite green-ammonium molybdate phosphate detection.
T1 construct: made in house
T1 sequence (P18031 1-435): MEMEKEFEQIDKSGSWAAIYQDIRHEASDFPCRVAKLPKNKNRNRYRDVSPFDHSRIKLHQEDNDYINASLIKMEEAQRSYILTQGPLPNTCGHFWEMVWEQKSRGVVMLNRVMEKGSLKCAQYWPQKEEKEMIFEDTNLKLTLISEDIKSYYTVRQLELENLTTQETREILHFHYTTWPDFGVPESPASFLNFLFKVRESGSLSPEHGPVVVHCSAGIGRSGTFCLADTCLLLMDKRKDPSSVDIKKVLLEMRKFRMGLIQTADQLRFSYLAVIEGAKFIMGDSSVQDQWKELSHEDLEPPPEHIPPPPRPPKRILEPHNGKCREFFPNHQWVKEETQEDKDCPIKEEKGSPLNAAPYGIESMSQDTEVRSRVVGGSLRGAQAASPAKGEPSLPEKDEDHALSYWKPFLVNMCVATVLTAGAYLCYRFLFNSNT
Type: biochemical
An IC50 of 0.063 µM was found for CCCCCCCCCCCCNC(=O)c1cc(-c2cccc(Cl)c2)c(OCC(=O)O)c(-c2cccc(Cl)c2)c1 [Example 1, (3,3″-Dichloro-5′-dodecylcarbamoyl-[1,1′;3′,1″]terphenyl-2′-yloxy)-acetic acid] in this work. An IC50 of 0.183 µM was found for CCCCCCCCCCCCNC(=O)c1cc(Br)c(OCC(=O)O)c(-c2cccc(Cl)c2)c1 [Example 2, (3-Bromo-3′-chloro-5-dodecylcarbamoyl-biphenyl-2-yloxy)acetic acid] in this work. An IC50 of 0.111 µM was found for O=C(O)COc1c(-c2cccc(Cl)c2)cc(C(=O)NCCCCCCCCc2ccccc2)cc1-c1cccc(Cl)c1 [Example 3, [3,3″-Dichloro-5′-(8-phenyl-octylcarbamoyl)-[1,1′;3′,1″]terphenyl-2′-yloxy]-acetic acid] in this work. An IC50 of 0.015 µM was found for CCCCCCCCCCCCNC(=O)c1cc(-c2cccc(Cl)c2)c(OCCOCC(=O)O)c(-c2cccc(Cl)c2)c1 [Example 12] in this work. An IC50 of 0.044 µM was found for CCCCCCCCCCCCNC(=O)c1cc(-c2ccc(F)c(Cl)c2)c(OCC(=O)O)c(-c2ccc(F)c(Cl)c2)c1 [Example 24, (3,3″-Dichloro-5′-dodecylcarbamoyl-4,4″-difluoro[1,1′;3′,1″]terphenyl(-2′-yloxy)-acetic acid sodium salt] in this work. An IC50 of 0.123 µM was found for O=C(O)COc1c(-c2ccc(F)c(Cl)c2)cc(C(=O)NCCCCCCCCc2ccccc2)cc1-c1ccc(F)c(Cl)c1 [Example 25, [3,3″-Dichloro-4-4″difluoro-5′-(8-phenyl-octylcarbamoyl)[-1,1′;3′,1″]terphenyl-2′-yloxy]-acetic acid] in this work. An IC50 of 0.203 µM was found for CCCCCCCCCCCCNC(=O)c1cc(Br)c(OCC(=O)O)c(-c2ccc(OC)cc2)c1 [Example 31, (3-Bromo-5-dodecylcarbamoyl-4′-methoxy-biphenyl-2-yloxy)-acetic acid] in this work. An IC50 of 0.254 µM was found for CCCCCCCCOc1cc(-c2cccc(OC)c2)c(OCC(=O)O)c(-c2cccc(OC)c2)c1 [Example 50, (3,3″-Dimethoxy-5′-octyloxy-[1,1′;3′,1″]terphenyl-2′-yloxy)acetic acid] in this work. An IC50 of 0.45 µM was found for O=C(O)COc1c(-c2cccc(C(F)(F)F)c2)cc(C(=O)NCCCCCCCCc2ccccc2)cc1-c1ccccc1F [Example 108, [2″-Fluoro-5′-(8-phenyl-octylcarbamoyl)-3-trifluoromethyl-[1,1′;3′,1″]terphenyl-2′-yloxy)-acetic acid] in this work. An IC50 of 0.187 µM was found for CCCCCCCCCCCCNC(=O)c1cc(-c2cccc(C(F)(F)F)c2)c(OCC(=O)O)c(-c2ccccc2F)c1 [Example 109, (5′-Dodecylcarbamoyl-2″-fluoro-3-trifluoromethyl-[1,1′;3′,1″]terphenyl-2′-yloxy)-acetic acid] in this work. An IC50 of 0.3 µM was found for CCCCCCCCCCCCNC(=O)c1cc(-c2ccccc2F)c(OCC(=O)O)c(-c2ccccc2F)c1 [Example 110, (5′-Dodecylcarbamoyl-2,2″-difluoro-[1,1′;3′,1″]terphenyl-2′-yloxy)-acetic acid] in this work. An IC50 of 0.7 µM was found for O=C(O)COc1c(-c2ccccc2F)cc(C(=O)NCCCCCCCCc2ccccc2)cc1-c1ccccc1F [Example 111, [2,2″-Difluoro-5′-(8-phenyl-octylcarbamoyl)-[1,1′;3′,1″]terphenyl-2′-yloxy)-acetic acid] in this work. An IC50 of 0.055 µM was found for CCCCCCCCCCCCNC(=O)c1cc(-c2cccc(Cl)c2)c(OCC(=O)O)c(-c2ccccc2F)c1 [Example 114, (3″-Chloro-5′-dodecylcarbamoyl-2-fluoro-[1,1′;3′,1″]terphenyl-2′-yloxy)-acetic acid] in this work. An IC50 of 0.287 µM was found for O=C(O)COc1c(-c2cccc(Cl)c2)cc(C(=O)NCCCCCCCCc2ccccc2)cc1-c1ccccc1F [Example 115, [3″-Chloro-2-fluoro-5′-(8-phenyl-octylcarbamoyl)-[1,1′;3′,1″]terphenyl-2′-yloxy]-acetic acid] in this work. An IC50 of 0.423 µM was found for CN(CCCCCCCCc1ccccc1)C(=O)c1cc(-c2ccccc2F)c(OCC(=O)O)c(-c2ccccc2F)c1 [Example 118, {2,2″-Difluoro-5′-[methyl-(8-phenyl-octyl)-carbamoyl]-[1,1′;3′,1″]terphenyl-2′-yloxy}-acetic acid] in this work. An IC50 of 0.627 µM was found for O=C(O)COc1c(-c2cccc(Cl)c2)cc(C(=O)NCCCCCCCC[S+]([O-])c2ccc(Cl)cc2)cc1-c1cccc(Cl)c1 (stereo not drawn) [Example 119, {3,3″-Dichloro-5′-[8-(4-chloro-benzenesulfinyl)-octylcarbamoyl]-[1,1′;3′,1″]terphenyl-2′-yloxy}-acetic acid] in this work. An IC50 of 0.053 µM was found for O=C(O)COc1c(-c2cccc(Cl)c2)cc(C(=O)NCCCCCCCCOc2ccc(F)cc2F)cc1-c1cccc(Cl)c1 [Example 120, {3,3″-Dichloro-5′-[8-(2,4-difluoro-phenoxy)-octylcarbamoyl]-[1,1′;3′,1″]terphenyl-2′-yloxy}-acetic acid] in this work. An IC50 of 0.015 µM was found for O=C(O)COc1c(-c2cccc(Cl)c2)cc(C(=O)NCCCCCCCCCCCCOc2ccc(F)cc2F)cc1-c1cccc(Cl)c1 [Example 121, {3,3″-Dichloro-5′-[12-(2,4-difluoro-phenoxy)-dodecylcarbamoyl]-[1,1′;3′,1″]terphenyl-2′-yloxy}-acetic acid] in this work. An IC50 of 0.092 µM was found for O=C(O)COc1c(-c2cccc(Cl)c2)cc(C(=O)NCCCCCCCCOCc2ccc(C(F)(F)F)cc2)cc1-c1cccc(Cl)c1 [Example 122, {3,3″-Dichloro-5′-[8-(4-trifluoromethyl-benzyloxy)-octylcarbamoyl]-[1,1′;3′,1″]terphenyl-2′-yloxy}-acetic acid] in this work. An IC50 of 0.595 µM was found for O=C(O)COc1c(-c2cccc(Cl)c2)cc(C(=O)N(C2CCCCC2)C2CCCCC2)cc1-c1cccc(Cl)c1 [Example 124, (3,3″-Dichloro-5′-dicyclohexylcarbamoyl-[1,1′;3′,1″]terphenyl-2′-yloxy)-acetic acid] in this work. An IC50 of 0.264 µM was found for O=C(NCCCCCCCc1ccccc1)c1cc(-c2cccc(C(F)(F)F)c2)c(OCP(=O)(O)O)c(-c2cccc(C(F)(F)F)c2)c1 [Example 128, [5′-(7-Phenyl-heptylcarbamoyl)-3,3″-bis-trifluoromethyl-[1,1′:3′,1″]terphenyl-2′-yloxymethyl]-phosphonic acid] in this work. An IC50 of 0.056 µM was found for O=C(NCCCCCCCc1ccccc1)c1cc(-c2cccc(C(F)(F)F)c2)c(OCc2ccc(S(=O)(=O)O)cc2)c(-c2cccc(C(F)(F)F)c2)c1 [Example 130, 4-[5′-(7-Phenyl-heptylcarbamoyl)-3,3″-bis-trifluoromethyl-[1,1′3′,1″]terphenyl-2′-yloxymethyl]-benzenesulfonic acid] in this work. An IC50 of 0.102 µM was found for COc1ccc(-c2cc(-c3ccc(C(=O)NCCCCCCCc4ccccc4)cc3)cc(-c3ccc(OC)cc3)c2OCc2ccc(C(=O)O)cc2)cc1 [Example 133] in this work. An IC50 of 0.057 µM was found for O=C(O)c1ccc(COc2c(-c3cccc(C(F)(F)F)c3)cc(C(=O)NCCCCCCCc3ccccc3)cc2-c2cccc(C(F)(F)F)c2)cc1 [Example 134, 4-[5′-(7-Phenyl-heptylcarbamoyl)-3,3″-bis-trifluoromethyl-[1,1′:3′,1″]terphenyl-2′-yloxymethyl]-benzoic acid] in this work. An IC50 of 0.13 µM was found for CCCCCCCCCCCCNC(=O)c1cc(Br)c(OCC(=O)O)c(-c2ccc(F)c(Cl)c2)c1 [Example 135, (3-Bromo-3′-chloro-5-dodecylcarbamoyl-4′-fluoro-biphenyl-2-yloxy)acetic acid] in this work. An IC50 of 0.455 µM was found for O=C(O)COc1ccc(C(=O)NCCCCCCCCc2ccccc2)cc1-c1ccc(F)c(Cl)c1 [Example 136, [3′-Chloro-4′-fluoro-5-(8-phenyl-octylcarbamoyl)-biphenyl-2-yloxy]acetic acid] in this work. An IC50 of 0.071 µM was found for Cc1cc(C)cc(-c2cc(C(=O)NCCCCCCCCc3ccccc3)cc(-c3cc(C)cc(C)c3)c2OCC(=O)O)c1 [Example 141, [3,5,3″,5″-Tetramethyl-5′-(8-phenyl-octylcarbamoyl)-[1,1′:3′,1″]terphenyl-2′-yloxy]acetic acid] in this work. An IC50 of 0.258 µM was found for Cc1cccc(-c2cc(C(=O)NCCCCCCCc3ccccc3)cc(-c3cccc(C)c3)c2OCCCC(=O)O)c1 [Example 146, 4-[3,3″-Dimethyl-5′-(7-phenyl-heptylcarbamoyl)-[1,1′:3′,1″]terphenyl-2′-yloxy]-butyric acid] in this work. An IC50 of 0.405 µM was found for COCOc1c(-c2cccc(C=O)c2)cc(C(=O)NCCCCCCCc2ccccc2)cc1-c1cccc(C=O)c1 [Example 149, 3,3″-Diformyl-2′-methoxymethoxy-[1,1′:3′,1″]terphenyl-5′-carboxylic acid (7-phenyl-heptyl)-amide] in this work. An IC50 of 0.396 µM was found for O=C(NCCCCCCCCc1ccccc1)c1cc(Br)c(O)c(-c2cccc(C(=O)OCCCCCl)c2)c1 [Example 152, 3′-Bromo-2′-hydroxy-5′-(8-phenyl-octylcarbamoyl)-biphenyl-3-carboxylic acid 4-chloro-butyl ester] in this work. An IC50 of 0.098 µM was found for CCCCCCCCCCCCNC(=O)c1cc(-c2cccc(Cl)c2)c(OCC(=O)O)c(-c2cccc(C(F)(F)F)c2)c1 [Example 153, (3″-Chloro-5′-dodecylcarbamoyl-3-trifluoromethyl-[1,1′;3′,1″]terphenyl-2′-yloxy)acetic acid] in this work. An IC50 of 0.129 µM was found for CCCCCCCCCCCCNC(=O)c1cc(-c2ccc(OC)cc2)c(OCC(=O)O)c(-c2cccc(C(F)(F)F)c2)c1 [Example 154, (5′-Dodecylcarbamoyl-4″-methoxy-3-trifluoromethyl-[1,1′;3′1″]terphenyl-2′-yloxy)acetic acid] in this work. An IC50 of 0.139 µM was found for CCCCCCCCCCCCNC(=O)c1cc(-c2ccc(OC)cc2)c(OCC(=O)O)c(-c2ccccc2F)c1 [Example 155, (5′-Dodecylcarbamoyl-2″-fluoro-4-methoxy-[1,1′;3′,1″]terphenyl-2′-′yloxy)acetic acid] in this work.
